For orientation: CC50 means the concentration at which the toxic effect on the cells reaches its halfway point. What is called EC50 is the midpoint of the concentration-response curve.

Data set [1] can be described thus: Cytotoxicity in uninfected HEp-2 cells, single concentration of 200 μM replenished daily for 5 days. The conditions noted are these: human, solvent PBS (ribavirin: water). Format: cell-based. From the text: (§1) The tetrazolium based cell viability assay is based upon the ability of mitochondrial dehydrogenase which is present in viable cells to catalyze the reduction of a yellow tetrazolium salt known as MTT [3-(4,5-dimethylthiazol-2-yl)-2,5-diphenylthtiazolium bromide] to a dark blue/purple formazon product, generally as described by K. Rubino et al., J. Virological Methods, 39, 55-67 (1992)
(§2) RSV infection results in a marked reduction in cell viability and thus a lowered rate of formazan production. The assay method gives a very low absorbance value (practically zero) in wells which contain virus-infected cells and no compound or a compound which lacks anti-RSV activity. Compounds which inhibit RSV replication should prevent cell death and will therefore result in an increased intensity of color of the formazan solution. The measurement of viral growth as a function of cell viability allows the assay to be used for establishing levels of compound cytotoxicity in uninfected cells within the same assay. Thus, the assay provides a rapid colorimetric method for measuring RSV specific cytopathic effect.
(§3) The HEp-2 cells and RSV strain A2 virus which are used in the assay are publicly available and were obtained from the American Tissue Culture Collection. HEp-2 cells correspond to ATCC accession no. CCL32; and Respiratory Syncytial Virus, strain A2 corresponds to ATCC accession no. VR-1302. Respiratory syncytial virus was grown (i.e., multiplied) and titered in HEp-2 cells.
The RSV inhibition assay was carried out as follows. The assay was performed in 96 well microtiter plates seeded with 2.5×10^4 cells per well. […] Detached cells were resuspended and carefully dispersed in Minimal Essential Medium (MEM) (JRH Biosciences cat. #210-3510) containing 2% FBS (fetal bovine serum) and the concentration of viable cells was determined by trypan blue exclusion. […]
The cell suspension was divided into a first portion to which respiratory syncytial virus (RSV A2) was added at a multiplicity of infection of 1, and a second portion to which no virus was added. […] A multiplicity of infection equal to 1 was selected based on the observation this concentration of virus is just sufficient to produce a cytopathic effect that essentially eliminated MTT metabolism in infected, untreated cells during the time course of the assay (determined previously by a viral dilution assay).
(§4) After the incubation period, MTT (Sigma Chemical Co., St. Louis, Mo., Cat. #M2128) was dissolved in serum free MEM to give a 3 mg/ml solution and 100 μl of MTT solution was added to each well and the plates further incubated for 2 hours at 37° C. […] The optical density of the formazan/isopropanol solution from each well was determined using a Dynatech MR5000 multiplate reader at 570 nm with a 630 nm reference. […]

A further data set concerns HEp-2 cells. Description: Cytotoxicity in uninfected HEp-2 cells (MTT), same assay. Format: cell-based. Conditions: 5 day assay, drug added on day 1, 7200 min.
Text: as §1
(§5) Formazan is only slightly soluble in aqueous solutions, and therefore appears as dark cell-associated crystals. The crystals may be readily solublized in an organic solvent and the absorbance of the resulting blue/purple solution may be quantified using a multi-well plate spectrophotometer.
as §2, §3
(§6) The RSV inhibition assay was carried out as follows. The assay was performed in 96 well microtiter plates seeded with 2.5×10^4 cells per well. To provide a sufficient number of cells to seed the plates, stock cultures of HEp-2 cells were first grown in tissue culture flasks to about 80-100% confluency. The cell layer was washed with room temperature PBS (without calcium and magnesium) and then trypsinized (JRH Biosciences cat. #59-22877P) in a minimal volume of trypsin solution at 37° C. to detach them from the growth surface. Detached cells were resuspended and carefully dispersed in Minimal Essential Medium (MEM) (JRH Biosciences cat. #210-3510) containing 2% FBS (fetal bovine serum) and the concentration of viable cells was determined by trypan blue exclusion. Cell density was adjusted to 2.5×10^5 viable cells/ml by further dilution in MEM+2% FBS.
(§7) Test compound(s) and positive control (ribavirin) were added and serially diluted in the microtiter plate to the desired concentrations (8 replicates/compound/concentration plus 8 control wells/plate which received no compound).
(§8) The cell suspension was divided into a first portion to which respiratory syncytial virus (RSV A2) was added at a multiplicity of infection of 1, and a second portion to which no virus was added. The virus-infected cell suspension was mixed by low speed vortexing and 100 μl of the virus-infected cell suspension was immediately added to half of the wells in the 96 well plate (corresponding to 4 replicates of each compound dilution). 100 μl of the virus-free cell suspension was added to the other half of the wells in the microtiter plate (corresponding to the other 4 replicates for each compound and dilution). A multiplicity of infection equal to 1 was selected based on the observation this concentration of virus is just sufficient to produce a cytopathic effect that essentially eliminated MTT metabolism in infected, untreated cells during the time course of the assay (determined previously by a viral dilution assay).
(§9) The plates were incubated at 37° C., 5% CO2 for 5 to 6 days. […]

Assay in data set [2]: as above
Format: cell-based. The conditions noted are these: human, hep-2 cells.
Text: as §1, §5, §2, §3, §6, §7, §8, §9

The test system of data set [3] is respiratory syncytial virus (RSV A2). Format: cell-based. The conditions noted are these: human, hep-2 cells, 120 h, 200 µM.
Text: as §1
RSV infection results in a marked reduction in cell viability and thus a lowered rate of formazan production. The assay method gives a very low absorbance value (practically zero) in wells which contain virus-infected cells and no compound or a compound which lacks anti-RSV activity. […]
The RSV inhibition assay was carried out as follows. […] Detached cells were resuspended and carefully dispersed in Minimal Essential Medium (MEM) (JRH Biosciences cat. #210-3510) containing 2% FBS (fetal bovine serum) and the concentration of viable cells was determined by trypan blue exclusion. […]
as §4

Data set [4] has the same test system. The data set can be described thus: RSV inhibition assay: tetrazolium (MTT) based cell viability assay in RSV-infected HEp-2 cells (serial dilutions). The conditions noted are these: for EC50: human respiratory syncytial virus.
Text: as §1, §5
RSV infection results in a marked reduction in cell viability and thus a lowered rate of formazan production. […] The measurement of viral growth as a function of cell viability allows the assay to be used for establishing levels of compound cytotoxicity in uninfected cells within the same assay. Thus, the assay provides a rapid colorimetric method for measuring RSV specific cytopathic effect.
as §3, §6, §7
as §8, with “dilution).” for “dilution). A multiplicity of infection equal to 1 was selected based on the observation this concentration of virus is just sufficient to produce a cytopathic effect that essentially eliminated MTT metabolism in infected, untreated cells during the time course of the assay (determined previously by a viral dilution assay).”
The plates were incubated at 37° C., 5% CO2 for 5 to 6 days.
After the incubation period, MTT (Sigma Chemical Co., St. Louis, Mo., Cat. #M2128) was dissolved in serum free MEM to give a 3 mg/ml solution and 100 μl of MTT solution was added to each well and the plates further incubated for 2 hours at 37° C. The reaction was stopped by aspiration of the media to chemical waste, being careful not to remove the formazan crystals, and 200 μl of isopropanol was added to the wells to dissolve the crystals.

The conditions of data set [5]: cited from earlier work.

Values joined by “and” are separate entries in the source; they are usually repeats but may differ in a detail not shown here. Identical values can stand only once. Like-named read-outs stand apart in the source and are kept apart here.

In the case of `OCC1C(O)C(O)C(O)CN1CCCc1ccccc1` [compound 43, 1,5-(3-Phenylpropylimino)-1,5-dideoxy-D-glucitol], in data set [1], the cytotoxicity at 120 h, 200 µM worked out at 10%.

Turning to `NC(=O)c1ncn([C@@H]2O[C@H](CO)[C@@H](O)[C@H]2O)n1` [ribavirin, 1-beta-D-ribofuranosyl-1H-1,2,4-triazole-3-carboxamide], the CC50 with HEp-2 cells (solvent water) is 32.4 µM and 62.8 µM and 52.4 µM. Moreover, the CC50 at 120 h was determined as 38.3 µM in data set [2] (solvent water, 5 day assay, drug added on day 1); 40 µM in data set [2] (solvent water, 5 day assay, drug replenished daily); 20.4 µM in data set [2] (solvent water, 5 day assay, drug replenished on day [number not given]); 179 µM in data set [2] (solvent water, 6 day assay, drug added on day 1). In data set [1], the cytotoxicity at 120 h, 200 µM worked out at 65%. For the same molecule, the “% CELL PROTECTION / % CYTOTOXICITY (CTI)” value in data set [3] amounted to 1.6. Also, the concentration giving a half-maximal response (EC50) in data set [4] (HEp-2, 120 h, HEp-2, solvent water, 5 day assay, drug replenished daily) came out at 0.1 µM; in data set [4] (HEp-2, 120 h, HEp-2, solvent water, 5 day assay, drug replenished on day [number not given]), 2.6 µM; in data set [4] (HEp-2, HEp-2, solvent water, 6 day assay, drug added on day 1) it was 19.1 µM.

In the data set on HEp-2 cells (solvent DMSO), `CCCCN1C[C@H](O)[C@@H](O)[C@H](O)[C@H]1CO` [Ex. 6, 1,5-(Butylimino) -1,5-dideoxy-D-glucitol] displayed a half-maximal cytotoxic concentration (CC50) of 156 µM. The CC50 at 120 h in data set [2] (solvent DMSO, 5 day assay, drug added on day 1) is 100 µM; in data set [2] (solvent DMSO, 6 day assay, drug added on day 1, extrapolated), 365 µM; in data set [2] (solvent PBS, 5 day assay, drug added on day 1, extrapolated) it was 76200 µM; in data set [2] (solvent PBS, 6 day assay, drug added on day 1, extrapolated), 9400 µM. In data set [1], this molecule had a cytotoxicity at 120 h, 200 µM of 17%. In addition, the EC50 in data set [4] (HEp-2, 120 h, HEp-2, solvent PBS, 5 day assay, drug replenished daily, read-out: ~EC50) is 45 µM; in data set [4] (HEp-2, 120 h, HEp-2, solvent PBS, 5 day assay, drug replenished on day [number not given], read-out: ~EC50), 185 µM; in data set [4] (HEp-2, HEp-2, solvent DMSO, 6 day assay, drug added on day 1, extrapolated, read-out: ~EC50), 250 µM; in data set [4] (HEp-2, HEp-2, solvent PBS, 6 day assay, drug added on day 1, read-out: ~EC50), 431 µM. The CTI in data set [4] (solvent PBS, 5 day assay, drug added on day 1, from extrapolated CC50 and EC50) is recorded as 275.5; in data set [4] (solvent PBS, 6 day assay, drug added on day 1, from extrapolated CC50, 7200 min) it was 21.8.

For the molecule `CCCCN1CC(OC(C)=O)C(OC(C)=O)C(OC(C)=O)C1COC(C)=O` [Ex. 7, 1,5-(Butylimino)-1,5-dideoxy-D-glucitol, tetraacetate], in data set [1], the cytotoxicity at 120 h, 200 µM was 11%. The “enzymatic conversion in vivo of prodrug” value in data set [5] is reported as “enzymatically converted in vivo to the compound of Ex. 6”.
